Experimental findings from patent US5552405A, “Substituted pyrrolidine derivatives as HIV protease inhibitors” (Bio-Mega/Boehringer Ingelheim Research, Inc., priority 1995, dated 1996) are described below.

pEC50, pIC50: −log10 of the molar value.

Experiment [1] concerns HIV (H9/HTLV-IIIB) in HTLV-I transformed C8166 cells. Kind of experiment: plaque assay, inhibition of HIV (H9/HTLV-IIIB) syncytia formation in C8166 cells. Format: cell-based. Conditions: Human immunodeficiency virus 1, fifty times TCID50, 37°, 72 h, read-out: EC50, concentration of the test compound which causes a 50% inhibition of syncytia formation. An excerpt:
Typical of such procedures are those described by S. Harada and N. Yamamoto, Jpn. J. Cancer Res. (Gann), 76, 432 (1985), and S. Harada et al., Science, 229, 563 (1985). An assay based on the latter procedures is described in the examples hereinafter.
The following protocol, used for screening antiviral effects of the compounds of formula 1, is adapted from a plaque assay utilizing HTLV-I transformed cells, previously reported by Harada et al., supra. HTLV-I transformed cells are used because of the rapidity with which HIV will replicate in the cells.
1. The test compound is dissolved in dimethylsulfoxide to a concentration of 5 mg/mL. The resultant solution can be stored at 4° until use.
2. The resultant solution is diluted in RPMI 1640 (Gibco Laboratories, St. Lawrence, Mass., USA) to four times (4×) the final concentration which is to be tested. Once diluted in RPMI 1640, the solution is used in the cell culture assay within 4 h.
3. The 4×solution (50 μL) is added to triplicate wells of a 96 well flat bottomed microtiter plate. RPMI (50 μL) also is added to control wells.
4. C8166 cells (5×10^4) in […] of HEPES-buffered RPMI 1640 (pH=7.2), 10% heat inactivated fetal calf serum (FCS), […] gentamicin (complete media) are added to all wells.
5. Fifty times TCID50 of H9/HTLV-IIIB stock (stored in liquid nitrogen as cell culture supernatant in 50% FCS) in 100 μL of complete media is added to all wells. Infectious titer of virus stocks are as previously determined by end point dilution on C8166 cells. Titer of stocks are stable for 6-12 months when stored at -193°.
6. Microtiter plates are then placed on level shelves of a 37°, 5% CO2 humidified incubator for 72 h.
7. Plates are then removed and centers of syncytia are counted in each well by low power phase contrast light microscopy. […] Control wells should have between 25 and 75 centers of syncytia per well.
8. Percent inhibition of syncytia formation is calculated by the formula: [formula]
The concentration of the test compound which causes a 50% inhibition of syncytia formation, i.e. the EC50, is determined by using the technique of serial dilution of the working solution at step 3 and graphically plotting the observed percent inhibition of syncytia formation against the various concentrations of the test compound.

Experiment [2] has as its target T1, HIV protease (Human immunodeficiency virus type 1 group M subtype B, UniProt P04585).
T1 construct: HIV protease was expressed in E. coli; made in house; host or cells: E. coli
In words: Recombinant HIV Protease HPLC Assay. Conditions: recombinant HIV protease expressed in E. coli; substrate VSFNFPQITL-NH2; pH 5.5; 37°, 30 min; read-out: IC50, concentration of the test compound which causes a 50% inhibition of the HIV-protease. In kind it is biochemical. The text has this:
The procedure is based on the capacity of the test compound to inhibit enzymatic cleavage by HIV protease of a decapeptide (the substratel having an amino acid sequence which includes a known HIV protease cleavage site of a HIV polyprotein; see H. G. Krausslich et al., Proc. Natl. Acad. Sci. U.S.A., 86, 807 (1989). Details of this assay together with the results obtained for exemplified compounds of formula 1 are described in the examples hereinafter.
Enzyme: HIV protease was expressed in E. coli {construct pBRT1 prt^+, see W. G. Farmerie et al., Science, 236, 305 (1987)}, according to the following protocol: Unless stated otherwise, all solutions are aqueous solutions.
E. coli cells containing the pBRT1 prt^+ plasmid were used to inoculate a seed culture media composed of Luria-Bertani Broth containing 100 μg/mL of ampicillin. Flasks were incubated at 37° under agitation for 17 h. Production flasks containing sterile M9 broth, supplemented with 100 μg/mL of ampicillin, were inoculated at a level of 1% (v/v) using the seed culture described above. Total volume in each production flask was 500 mL in a 2 L Erlenmeyer flask. Flasks were incubated at 37° under agitation until a cell concentration corresponding to an optical density (λ=540 μm) of 0.6 was reached (no dilution). This time span was routinely 3-4 h. Flasks were then supplemented with 5 mM isopropylthiogalactoside (IPTG, Research Organics, Cleveland, Ohio, USA) and incubation was continued until the cell concentration reached an optical density of 0.2 at 16-fold dilution. Flasks were then supplemented with 1 mM phenylmethylsulfonyl fluoride (PMSF) and rapidly chilled to 4°. The bacterial cells were recovered by centrifugation at 4°. The wet pellet was stored at -70°.
All steps below were perfomed at 4° unless otherwise indicated. Thawed cells were mixed with buffer A {50 mM tris(hydroxymethyl)aminoethane HCl (Tris-HCl, pH 7.4); 0.6 mM ethylenediaminetetraacetic acid (EDTA); 0.375M NaCl, 0.2% Nonidet P-40® (BDH Chemicals Ltd., Poole, UK); 1 mM PMSF}, at a ratio of one part cells to nine parts buffer A. Diatomaceous earth (Celite 545® John Manville, Lompoc, Calif. U.S.A.) was added at a ratio of two parts to one part of wet cell weight. The resulting slurry was homogenized at high speed (ca. 20,000 rpm) on a Waring® industrial blender for 8×15 sec. pulses. Cell debris/Celite® was collected by centrifugation and the resulting pellet was extracted with 4.5 parts of buffer A to one part wet solids using the homogenization procedure described above. Supernatants from both homogenization steps were combined and soluble protein was precipitated by the addition of solid (NH4)2 SO4 to yield a final concentration of 75% saturation. This mixture was agitated for 60 min and the precipitate was recovered by centrifugation. The resulting pellet was suspended in buffer B {50 mM Tris-HCl, pH 8; 30 mM NaCl; 1 mM DL-dithiothreitol (DTT); 1 mM EDTA; mM PMSF; 10% glycerol}, and dialyzed for 18 h against the same buffer.
An aliquot of the dialyzed extract containing 150 mg of the protein was loaded onto a Sephadex A25® anion exchange column (Pharmacia, Uppsala, Sweden) with bed dimensions of 70 cm length and 2.5 cm diameter. The sample was eluted isocratically with buffer B at a linear flow rate of 10 cm/h. Fractions containing HIV protease activity (see below for assay description) were combined, and soluble protein was precipitated by the addition of saturated aqueous (NH4)2 SO4 to yield a total (NH4)2 SO4 concentration of 85% saturation. Precipitated protein was removed by centrifugation and the resulting pellet was dissolved in buffer C {50 mM 2-(4-morpholino)ethanesulfonic acid (MES), pH 5.5; 150 mM NaCl; 1 mM DTT; 1 mM EDTA; 10% glycerol}. This preparation was dialyzed for 18 h against buffer C, and then frozen at -70°. All crude extracts were purified by chromatography in aliquots containing 150 mg of protein in the same manner as described above. […]

`Cc1cc(O[C@@H]2C[C@@H](C(=O)NC(C)(C)C)N(C[C@@H](O)[C@H](Cc3ccccc3)NC(=O)[C@@H](NC(=O)c3ccc4ccccc4n3)C(C)C)C2)nc(C)n1` [Table I Entry 12, N-tert-butyl-1-{2(R)-hydroxy-4-phenyl-3(S)-{{N-(2-quinolinylcarbonyl)valyl}amino}butyl}-4(R)-{(2,6-dimethyl-4-pyrimidinyl)oxy}pyrrolidine-2(S)-carboxamide]: in experiment [1], the pEC50 is 6.41. Moreover, in experiment [2], the pIC50 is 8.03.
